Source: patent publication US5369016A, “Peptide amidase and the use thereof” (Forschungszentrum Juelich GmbH, priority 1990, dated 1994)
Like-named read-outs stand apart in the source and are kept apart here. Peptide text beside a SMILES is read from it. * marks the point of attachment. pNA = O=[N+]([O-])c1ccc(N*)cc1; Cbz = O=C(OCc1ccccc1)*; Boc = CC(C)(C)OC(=O)*

What was measured:
[1] = tested on: peptide amidase; test: Enzymatic cleavage of N-terminal protected dipeptide amides; assay type: biochemical, orange
Text: The results in Table 7 were obtained using an eluent: TBA/acetonitrile 60/40 (% volume)

[2] = tested on: peptide amidase; test: Effect of chelating agents, metal cations and enzyme inhibitors on peptide amidase activity; assay type: biochemical, navel oranges
Procedure: The effect of the following inhibitors on peptide amidase activity was determined under standard conditions according to the methods described in Example 1. The inhibitor concentration was 10 mM in each case.

[3] = tested on: peptide amidase from orange flavedo; test: Cleavage of amides of amino acids (TLC); assay type: biochemical; parameters: scale not given here; conditions: 50 μg/ml; 10 mM substrate; 24 h; 0.05M KPi, pH 7.5; * = slight traces
Procedure: A DEAE-purified enzyme was employed in these experiments (volumetric activity: 40 U/ml for the substrate For-Tyr-Arg-NH2).
from orange flavedo. (50 μg/ml; 10 mM substrate)
Eluent: pyridine/butanol/AcOH/H2 O (12:15:3:5).
Reaction: 24 h, RT; 0.05M KPi, pH 7.5., 30° C.
Blank sample without enzyme.

[4] = tested on: peptide amidase; test: Enzymatic reaction of peptide amides with a chain length of greater than three amino acids; assay type: biochemical, orange
Procedure: Enzymatic reaction of peptide amides with a chain length of greater than
three amino acids. Reaction conditions: 10 mM substrate, 40 μg/ml
50 mM tris/HCL, pH 7.0, temp. 30° C.

[5] = tested on: peptide amidase; test: Deamidation of N-terminal protected amino acid amides; assay type: biochemical, orange; conditions: for Spec. Activity / Yield: 10 mM substrate, 50 μg.ml peptide amidase, pH 7.0, 30° C.; for Spec. Activity: 50 mM tris/HCl
Procedure: Separating conditions according to Example 3A were employed.
Eluent: TBA/acetonitrile 65:35 (90:10 for Bz-Arg-NH2)
Reaction conditions: 10 mM substrate; 50 μg.ml peptide amidase; 50 mM
tris/HCl; pH 7.0; Temperature 30° C.

[6] = tested on: peptide amidase; test: Effect of the acetone concentration on kinetic parameters Km and Vmax; assay type: biochemical, orange
Procedure: Substrate: Z--Gly--Tyr--NH2; 40 μg/ml peptide amidase in 50 mM

[7] = tested on: peptide amidase
Procedure: A reaction mixture comprising the following constituents was employed:
850 μl of the particular solvent/tris (50 mM; pH 7.5) mixture
100 μl of substrate (10 mM Z-Gly-Tyr-NH2)
50 μl of amidase (40 μg of protein)
The reaction was initiated by the addition of the enzyme to prevent inactivation of the enzyme prior to the reaction.

[8] = inhibitor 0.01 m (10 mM), standard conditions of Example 1
[9] = enzymatic cleavage of the C-terminal amide
[10] = peptide amidase, 6 h, 10000 µM, pH 7
[11] = peptide amidase, pH 7, 10000 µM
[12] = 10 mM substrate, 40 μg/ml peptide amidase, 50 mM tris/HCL, pH 7.0, 30° C., 360 min
[13] = 89.1% solvent, substrate Z-Gly-Tyr-NH2

Molecule: N=C(N)NCCC[C@H](NC(=O)[C@H](Cc1ccc(O)cc1)NC=O)C(N)=O [For--Tyr--Arg--NH2]
- Yield ([1]; peptide amidase): 100%

Molecule: O[C@H](CS)[C@H](O)CS (racemic) [Dithiothreitol]
- % activity remaining [2, 8]: 100%

Molecule: Bz--Tyr--Ala--NH2
- Yield [1, 9]: 65%

Molecule: Mal--Tyr--Arg--NH2
- Yield [1, 9]: 100%

Molecule: NC(=O)[C@H](N)Cc1ccccc1 [D-Phe--NH2]
- Reaction [3]: 0

Molecule: N=C(N)NCCC[C@H](NC(=O)[C@@H]1CCCN1C(=O)OCc1ccccc1)C(=O)NCC(N)=O [Z--Pro--Arg--Gly--NH2] (Cbz-Pro-Arg-Gly-NH2)
- Yield [4, 10]: 100 %/6 h

Molecule: NC(=O)[C@@H](N)CO [Ser--NH2]
- Reaction [3]: 0

Molecule: N=C(N)NCCC[C@H](NC(=O)c1ccccc1)C(N)=O [Bz--Arg--NH2]
- Spec. Activity [5]: 4.39 U/mg
- Yield ([5]; 28 min): 61.6 %/28 min
- Yield ([5]; 120 min): 100 %/2 h
- Yield after 45 min [5, 11]: 73.5%
- variation of Km and Vmax with solvent concentration (in words) [6]: did not vary significantly

Molecule: Luteinizing Hormone Releasing Factor [LHRH]
- Yield [4, 12]: 90 %/6 h

Molecule: [N-]=[N+]=[N-].[Na+] [NaN3]
- % activity remaining [2, 8]: 100%

Molecule: NC(=O)[C@H](Cc1ccc(O)cc1)NC(=O)c1ccccc1 [Bz--Tyr--NH2]
- Spec. Activity [5]: 6.34 U/mg
- Yield ([5]; 28 min): 88.7 %/28 min
- Yield ([5]; 120 min): 100 %/2 h
- yield after 15 minutes [5, 11]: 47.6%
- Yield [1, 9]: 100%

Molecule: C[C@@H](O)[C@H](N)C(N)=O [Thr--NH2]
- Reaction [3]: 0

Molecule: CCCO [Propanol]
- Activity ([7]; 5.0% solvent): 0.927 U/mg
- Activity ([7]; 18.0% solvent): 0.772 U/mg
- Activity ([7]; 27.0% solvent): 0.474 U/mg
- Activity ([7]; 36.0% solvent): 0.342 U/mg
- Activity ([7]; 45.0% solvent): 0.12 U/mg
- Activity ([7]; 54.0% solvent): 0.1 U/mg
- Activity ([7]; 63.0% solvent): 0.1 U/mg
- Activity ([7]; 72.0% solvent): 0.1 U/mg
- Activity [7, 13]: 0.05 U/mg

Molecule: NC(=O)[C@H](Cc1c[nH]c2ccccc12)NC(=O)OCc1ccccc1 [Z--Trp--NH2]
- Spec. Activity [5]: 0.37 U/mg
- Yield ([5]; 28 min): 5.16 %/28 min
- Yield ([5]; 120 min): 23.5 %/2 h
- Yield after 45 min [5, 11]: 14.9%

Molecule: CSCC[C@H](N)C(N)=O [Met--NH2]
- Reaction [3]: 0

Molecule: N=C(N)NCCC[C@H](N)C(N)=O [Arg--NH2]
- Reaction [3]: 0

Molecule: Bz--Tyr--Val--NH2
- Yield [1, 9]: 100%

Molecule: CC(C)C[C@@H](N)C(N)=O [D-Leu--NH2]
- Reaction [3]: 0

Molecule: [Cl][Hg][Cl] [HgCl2]
- % activity remaining [2, 8]: 95%

Molecule: NNC(N)=O [Semicarbazide]
- % activity remaining [2, 8]: 102%

Molecule: CC(C)C[C@H](N)C(N)=O [Leu--NH2]
- Reaction [3]: 0

Molecule: NCC(=O)O [Glycine]
- % activity remaining [2]: 99%

Molecule: NC(=O)[C@H](Cc1ccc(O)cc1)NC(=O)CNC(=O)OCc1ccccc1 [Z--Gly--Tyr--NH2, benzyloxycarbonyl-glycyltyrosinamide] (Cbz-Gly-Tyr-NH2)
- Vmax ([6]; 5% acetone): 2.93 U/mg
- Km ([6]; 5% acetone, 40 μg/ml peptide amidase, pH 7.5): 0.063 mM
- Km ([6]; 20% acetone): 1.6 mM
- Vmax ([6]; 20% acetone): 2.54 U/mg
- Km ([6]; 40% acetone): 5.5 mM
- Vmax ([6]; 40% acetone): 2.57 U/mg
- Km ([6]; 60% acetone): 19.6 mM
- Vmax ([6]; 60% acetone): 2.58 U/mg
- Yield ([1]; peptide amidase): 100%

Molecule: O=C(O)c1cc[c]([Hg][OH])cc1 [p-OHMBA, parahydroxymercuribenzoate]
- % activity remaining [2, 8]: 96%

Molecule: CCN1C(=O)C=CC1=O [EMI, ethylmaleimide]
- % activity remaining [2, 8]: 100%

Molecule: CC(C)C[C@H](NC(=O)OC(C)(C)C)C(=O)N[C@H](C(N)=O)C(C)C [Boc--Leu--Val--NH2] (Boc-Leu-Val-NH2)
- Yield ([1]; peptide amidase): 20%

Molecule: NC(=O)[C@@H](N)Cc1ccccc1 [Phe--NH2]
- Reaction [3]: 0

Molecule: Bz--Tyr--Thr--NH2
- Yield [1, 9]: 63%

Molecule: CC(C)C[C@H](NC(=O)[C@H](Cc1ccccc1)NC(=O)CNC(=O)CNC(=O)[C@@H](N)Cc1ccc(O)cc1)C(N)=O [H--Tyr--Gly--Gly--Phe--Leu--NH2, Leu-Enkephalin]
- Yield [4, 12]: 100 %/6 h

Molecule: O=C(O)CN(CCN(CC(=O)O)CC(=O)O)CC(=O)O [EDTA, ethylenedinitrilotetraacetic acid]
- % activity remaining [2]: 92%

Molecule: C[C@@H](N)C(N)=O [D-Ala--NH2]
- Reaction [3]: 0

Molecule: NC(=O)[C@H](Cc1ccccc1)NC(=O)[C@@H]1CCCN1C(=O)OCc1ccccc1 [Z--Pro--Phe--NH2] (Cbz-Pro-Phe-NH2)
- Yield ([1]; peptide amidase): 100%

Molecule: Bz--Tyr--Ile--NH2
- Yield [1, 9]: 100%

Molecule: CC(C)C[C@H](NC(=O)CNC(=O)CNC(=O)OCc1ccccc1)C(N)=O [Z--Gly--Gly--Leu--NH2] (Cbz-Gly-Gly-Leu-NH2)
- Yield [4, 10]: 100 %/6 h
- Yield ([1]; peptide amidase): 100%

Molecule: C[C@@H]1C[C@@H]([C@H](O)CC2CC(=O)NC(=O)C2)C(=O)[C@@H](C)C1 [Cycloheximide]
- % activity remaining [2, 8]: 98%

Molecule: Bz--Tyr--Lys--NH2
- Yield [1, 9]: 100%

Molecule: CC(C)[C@H](NC(=O)OCc1ccccc1)C(=O)NCC(=O)N[C@@H](C)C(=O)N1CCC[C@H]1C(N)=O [Z--Val--Gly--Ala--Pro--NH2] (Cbz-VGAP-NH2)
- Yield [4, 10]: 0 %/6 h

Molecule: N=C(N)NCCC[C@H](NC(=O)OCc1ccccc1)C(=O)N[C@@H](CCCNC(=N)N)C(=O)Nc1ccc([N+](=O)[O-])cc1 [Z--Arg--Arg--pNa, reference compound] (Cbz-Arg-Arg-pNA)
- reaction (in words) ([1]; comparison, 12 h): No reaction in 12 h

Molecule: Bz--Tyr--Leu--NH2
- Yield [1, 9]: 100%

Molecule: NC(=O)[C@H](Cc1ccccc1)NC(=O)CNC(=O)OCc1ccccc1 [Z--Gly--Phe--NH2] (Cbz-Gly-Phe-NH2)
- Yield ([1]; peptide amidase): 100%

Molecule: NC(=O)CI [Iodoacetamide]
- % activity remaining [2, 8]: 99%

Molecule: O=S(=O)(F)Cc1ccccc1 [PMSF, phenylmethanesulfonyl fluoride]
- inhibition of peptide amidase (in words) [2]: significantly inhibited
- % activity remaining [2, 8]: 55%
- inhibition of peptide amidase (in words) ([2]; listed as phenylmethanesulfonyl fluoride): weak inhibition

Molecule: CC[C@H](C)[C@H](N)C(N)=O [Ile--NH2]
- Reaction [3]: 0

Molecule: CCO [Ethanol]
- Activity ([7]; 5.0% solvent): 1.269 U/mg
- Activity ([7]; 18.0% solvent): 0.938 U/mg
- Activity ([7]; 27.0% solvent): 0.814 U/mg
- Activity ([7]; 36.0% solvent): 0.613 U/mg
- Activity ([7]; 45.0% solvent): 0.448 U/mg
- Activity ([7]; 54.0% solvent): 0.284 U/mg
- Activity ([7]; 63.0% solvent): 0.204 U/mg
- Activity ([7]; 72.0% solvent): 0.149 U/mg
- Activity [7, 13]: 0.083 U/mg

Molecule: NCCCC[C@H](N)C(N)=O [Lys--NH2]
- Reaction [3]: 0

Molecule: C[C@H](N)C(N)=O [Ala--NH2]
- Reaction [3]: 0

Molecule: N[C@@H]1CON=C1O [Cycloserine]
- % activity remaining [2, 8]: 100%

Molecule: Bz--Tyr--Trp--NH2
- Yield [1, 9]: 39%

Molecule: Boc--cys(bzl)--Pro--Arg--Gly--NH2
- Yield [4, 12]: 90 %/6 h

Molecule: CC(C)C[C@H](NC(=O)CNC(c1ccccc1)(c1ccccc1)c1ccccc1)C(=O)N[C@H](C(N)=O)C(C)C [Trt--Gly--Leu--Val--NH2]
- Yield [4, 10]: 100 %/6 h
- Yield ([1]; peptide amidase): 95%

Molecule: Bz--Tyr--Ser--NH2
- Yield [1, 9]: 41%

Molecule: CC(C)C[C@H](NC(=O)[C@@H]1CCCN1C(=O)OCc1ccccc1)C(=O)NCC(N)=O [Z--Pro--Leu--Gly--NH2] (Cbz-Pro-Leu-Gly-NH2)
- Yield [4, 10]: 100 %/6 h
- Yield ([1]; peptide amidase): 90%

Molecule: N=C(N)NCCC[C@H](NC(=O)[C@@H]1CCCN1)C(=O)NCC(N)=O [H--Pro--Arg--Gly--NH2] (H-Pro-Arg-Gly-NH2)
- Yield [4, 10]: 100 %/6 h

Molecule: NC(=O)[C@@H](N)Cc1cnc[nH]1 [His--NH2]
- Reaction [3]: 0

Molecule: CC(=O)N[C@@H](Cc1c[nH]c2ccccc12)C(N)=O [Ac--Trp--NH2]
- Spec. Activity [5]: 2.32 U/mg
- Yield ([5]; 28 min): 32.4 %/28 min
- Yield ([5]; 120 min): 100 %/2 h
- Yield after 45 min [5, 11]: 48.9%

Molecule: NC(=O)[C@@H](N)Cc1ccc(O)cc1 [Tyr--NH2]
- Reaction [3]: 0

Molecule: CC(C)[C@H](N)C(N)=O [Val--NH2]
- Reaction [3]: 0

Molecule: CC(C)=O [Acetone]
- Activity ([7]; 5.0% solvent): 2.011 U/mg
- Activity ([7]; 18.0% solvent): 1.863 U/mg
- Activity ([7]; 27.0% solvent): 1.748 U/mg
- Activity ([7]; 36.0% solvent): 1.527 U/mg
- Activity ([7]; 45.0% solvent): 1.38 U/mg
- Activity ([7]; 72.0% solvent): 0.585 U/mg
- Activity [7, 13]: 0.224 U/mg

Molecule: NC(=O)[C@@H](N)Cc1c[nH]c2ccccc12 [Trp--NH2]
- Reaction [3]: 0
